Laboratory results: patent US8802597B2, “Herbicidal pyrimidines” (E I du Pont de Nemours and Company, priority 2003, dated 2014)

Experiments:
Test in all cases: Test E flooded paddy water application
Type in all cases: in vivo
[1] = test system: late watergrass (Echinochloa oryzicola); conditions: Flood, 21 days, scale 0 to 100 (0 no effect, 100 complete control)
In short: (§1)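 Greenhouse pots of Tama silt loam with weeds and rice at 2.0–2.5-leaf stage, flooded to 3 cm; compounds applied directly into paddy water, depth maintained. Visual rating versus untreated controls after 21 days, 0 (no effect) to 100 (complete control); 29.5/26.7 °C, 16-h photoperiod.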

[2] = test system: water seeded rice seedlings (Oryza sativa cv. ‘Japonica-M202’); conditions: Flood, 21 days, scale 0 to 100 (0 no effect, 100 complete control)
In short: as §1

[3] = test system: rice flatsedge (Cyperus iria); conditions: Flood, 21 days, scale 0 to 100 (0 no effect, 100 complete control)
In short: as §1

[4] = test system: early watergrass (Echinochloa oryzoides); conditions: Flood, 21 days, scale 0 to 100 (0 no effect, 100 complete control)
In short: as §1

[5] = test system: bearded (brdd.) sprangletop (Leptochloa fusca ssp. fascicularis); conditions: Flood, 21 days, scale 0 to 100 (0 no effect, 100 complete control)
In short: as §1

[6] = test system: junglerice (Echinochloa colona); conditions: Flood, 21 days, scale 0 to 100 (0 no effect, 100 complete control)
In short: as §1

[7] = test system: ducksalad (Heteranthera limosa); conditions: Flood, 21 days, scale 0 to 100 (0 no effect, 100 complete control); for Plant response rating, Ducksalad: 16 g ai/ha
In short: as §1

[8] = test system: purple redstem (Ammannia coccinea); conditions: Flood, 21 days, scale 0 to 100 (0 no effect, 100 complete control)
In short: as §1

[9] = test system: barnyardgrass (Echinochloa crus-galli); conditions: Flood, 21 days, scale 0 to 100 (0 no effect, 100 complete control); for Plant response rating, Barnyardgrass: 16 g ai/ha
In short: as §1

[10] = test system: transplanted rice seedlings (Oryza sativa cv. ‘Japonica-M202’); conditions: Flood, 21 days, scale 0 to 100 (0 no effect, 100 complete control)
In short: as §1

[11] = test system: smallflower umbrella sedge (Cyperus difformis); conditions: Flood, 21 days, scale 0 to 100 (0 no effect, 100 complete control)
In short: as §1

COC(=O)c1nc(-c2ccc(I)cc2)nc(N)c1Br [Compound 128]
70: Sedge, Umbrella plant response rating ([11]; 64 g ai/ha)
80: Flatsedge, Rice plant response rating ([3]; 250 g ai/ha) | Sprangletop, Brdd. plant response rating ([5]; 250 g ai/ha) | Redstem plant response rating ([8]; 64 g ai/ha)
10: Junglerice plant response rating ([6]; 250 g ai/ha)
0: Watergrass, Late plant response rating ([1]; 32 g ai/ha) | Watergrass, Late plant response rating ([1]; 64 g ai/ha) | Watergrass, Late plant response rating ([1]; 125 g ai/ha) | Watergrass, Late plant response rating ([1]; 250 g ai/ha) | Plant response rating, Watergrass, Late ([1]; 16 g ai/ha) | Rice, Water Seeded plant response rating ([2]; 32 g ai/ha) | Rice, Water Seeded plant response rating ([2]; 64 g ai/ha) | Rice, Water Seeded plant response rating ([2]; 125 g ai/ha) | Rice, Water Seeded plant response rating ([2]; 250 g ai/ha) | Plant response rating, Rice, Water Seeded ([2]; 16 g ai/ha) | Flatsedge, Rice plant response rating ([3]; 32 g ai/ha) | Flatsedge, Rice plant response rating ([3]; 64 g ai/ha) | Plant response rating, Flatsedge, Rice ([3]; 16 g ai/ha) | Watergrass, Early plant response rating ([4]; 32 g ai/ha) | Watergrass, Early plant response rating ([4]; 64 g ai/ha) | Watergrass, Early plant response rating ([4]; 125 g ai/ha) | Watergrass, Early plant response rating ([4]; 250 g ai/ha) | Plant response rating, Watergrass, Early ([4]; 16 g ai/ha) | Sprangletop, Brdd. plant response rating ([5]; 32 g ai/ha) | Sprangletop, Brdd. plant response rating ([5]; 64 g ai/ha) | Sprangletop, Brdd. plant response rating ([5]; 125 g ai/ha) | Plant response rating, Sprangletop, Brdd. ([5]; 16 g ai/ha) | Junglerice plant response rating ([6]; 32 g ai/ha) | Junglerice plant response rating ([6]; 64 g ai/ha) | Junglerice plant response rating ([6]; 125 g ai/ha) | Plant response rating, Junglerice ([6]; 16 g ai/ha) | Plant response rating, Redstem ([8]; 16 g ai/ha) | Barnyardgrass plant response rating ([9]; 32 g ai/ha) | Barnyardgrass plant response rating ([9]; 64 g ai/ha) | Barnyardgrass plant response rating ([9]; 125 g ai/ha) | Barnyardgrass plant response rating ([9]; 250 g ai/ha) | Plant response rating, Barnyardgrass [9] | Rice, Transplanted plant response rating ([10]; 32 g ai/ha) | Rice, Transplanted plant response rating ([10]; 64 g ai/ha) | Rice, Transplanted plant response rating ([10]; 125 g ai/ha) | Rice, Transplanted plant response rating ([10]; 250 g ai/ha) | Plant response rating, Rice, Transplanted ([10]; 16 g ai/ha) | Plant response rating, Sedge, Umbrella ([11]; 16 g ai/ha)
100: Ducksalad plant response rating ([7]; 32 g ai/ha) | Ducksalad plant response rating ([7]; 64 g ai/ha) | Ducksalad plant response rating ([7]; 125 g ai/ha) | Ducksalad plant response rating ([7]; 250 g ai/ha) | Sedge, Umbrella plant response rating ([11]; 125 g ai/ha) | Sedge, Umbrella plant response rating ([11]; 250 g ai/ha)
60: Flatsedge, Rice plant response rating ([3]; 125 g ai/ha) | Sedge, Umbrella plant response rating ([11]; 32 g ai/ha)
95: Plant response rating, Ducksalad [7]
90: Redstem plant response rating ([8]; 125 g ai/ha) | Redstem plant response rating ([8]; 250 g ai/ha)
75: Redstem plant response rating ([8]; 32 g ai/ha)

Nc1nc(-c2ccc(Cl)cc2)nc(C(=O)O)c1Br [Compound 88]
90: Junglerice plant response rating ([6]; 250 g ai/ha)
100: Flatsedge, Rice plant response rating ([3]; 64 g ai/ha) | Flatsedge, Rice plant response rating ([3]; 125 g ai/ha) | Flatsedge, Rice plant response rating ([3]; 250 g ai/ha) | Ducksalad plant response rating ([7]; 32 g ai/ha) | Ducksalad plant response rating ([7]; 64 g ai/ha) | Ducksalad plant response rating ([7]; 125 g ai/ha) | Ducksalad plant response rating ([7]; 250 g ai/ha)
0: Watergrass, Late plant response rating ([1]; 32 g ai/ha) | Watergrass, Late plant response rating ([1]; 64 g ai/ha) | Watergrass, Late plant response rating ([1]; 125 g ai/ha) | Watergrass, Late plant response rating ([1]; 250 g ai/ha) | Plant response rating, Watergrass, Late ([1]; 16 g ai/ha) | Rice, Water Seeded plant response rating ([2]; 32 g ai/ha) | Rice, Water Seeded plant response rating ([2]; 64 g ai/ha) | Rice, Water Seeded plant response rating ([2]; 125 g ai/ha) | Rice, Water Seeded plant response rating ([2]; 250 g ai/ha) | Plant response rating, Rice, Water Seeded ([2]; 16 g ai/ha) | Watergrass, Early plant response rating ([4]; 32 g ai/ha) | Watergrass, Early plant response rating ([4]; 64 g ai/ha) | Watergrass, Early plant response rating ([4]; 125 g ai/ha) | Plant response rating, Watergrass, Early ([4]; 16 g ai/ha) | Sprangletop, Brdd. plant response rating ([5]; 32 g ai/ha) | Sprangletop, Brdd. plant response rating ([5]; 64 g ai/ha) | Plant response rating, Sprangletop, Brdd. ([5]; 16 g ai/ha) | Junglerice plant response rating ([6]; 32 g ai/ha) | Junglerice plant response rating ([6]; 64 g ai/ha) | Junglerice plant response rating ([6]; 125 g ai/ha) | Plant response rating, Junglerice ([6]; 16 g ai/ha) | Redstem plant response rating ([8]; 32 g ai/ha) | Redstem plant response rating ([8]; 64 g ai/ha) | Redstem plant response rating ([8]; 125 g ai/ha) | Plant response rating, Redstem ([8]; 16 g ai/ha) | Barnyardgrass plant response rating ([9]; 32 g ai/ha) | Barnyardgrass plant response rating ([9]; 64 g ai/ha) | Barnyardgrass plant response rating ([9]; 125 g ai/ha) | Barnyardgrass plant response rating ([9]; 250 g ai/ha) | Plant response rating, Barnyardgrass [9] | Rice, Transplanted plant response rating ([10]; 32 g ai/ha) | Rice, Transplanted plant response rating ([10]; 64 g ai/ha) | Rice, Transplanted plant response rating ([10]; 125 g ai/ha) | Rice, Transplanted plant response rating ([10]; 250 g ai/ha) | Plant response rating, Rice, Transplanted ([10]; 16 g ai/ha)
50: Plant response rating, Flatsedge, Rice ([3]; 16 g ai/ha) | Watergrass, Early plant response rating ([4]; 250 g ai/ha)
65: Redstem plant response rating ([8]; 250 g ai/ha)
85: Flatsedge, Rice plant response rating ([3]; 32 g ai/ha) | Sprangletop, Brdd. plant response rating ([5]; 125 g ai/ha) | Sedge, Umbrella plant response rating ([11]; 125 g ai/ha)
40: Sedge, Umbrella plant response rating ([11]; 32 g ai/ha) | Plant response rating, Sedge, Umbrella ([11]; 16 g ai/ha)
95: Sprangletop, Brdd. plant response rating ([5]; 250 g ai/ha) | Plant response rating, Ducksalad [7] | Sedge, Umbrella plant response rating ([11]; 250 g ai/ha)

CCOC(=O)c1nc(-c2ccc(I)cc2)nc(N)c1Cl [Compound 133]
20: Plant response rating, Redstem ([8]; 32 g ai/ha)
30: Plant response rating, Flatsedge, Rice ([3]; 16 g ai/ha)
35: Rice, Water Seeded plant response rating ([2]; 250 g ai/ha)
100: Flatsedge, Rice plant response rating ([3]; 250 g ai/ha) | Ducksalad plant response rating ([7]; 32 g ai/ha) | Ducksalad plant response rating ([7]; 64 g ai/ha) | Ducksalad plant response rating ([7]; 125 g ai/ha) | Ducksalad plant response rating ([7]; 250 g ai/ha) | Plant response rating, Ducksalad [7] | Sedge, Umbrella plant response rating ([11]; 125 g ai/ha) | Sedge, Umbrella plant response rating ([11]; 250 g ai/ha)
65: Plant response rating, Flatsedge, Rice ([3]; 32 g ai/ha) | Redstem plant response rating ([8]; 64 g ai/ha)
85: Redstem plant response rating ([8]; 250 g ai/ha)
0: Watergrass, Late plant response rating ([1]; 64 g ai/ha) | Watergrass, Late plant response rating ([1]; 125 g ai/ha) | Watergrass, Late plant response rating ([1]; 250 g ai/ha) | Plant response rating, Watergrass, Late ([1]; 16 g ai/ha) | Plant response rating, Watergrass, Late ([1]; 32 g ai/ha) | Rice, Water Seeded plant response rating ([2]; 64 g ai/ha) | Rice, Water Seeded plant response rating ([2]; 125 g ai/ha) | Plant response rating, Rice, Water Seeded ([2]; 16 g ai/ha) | Plant response rating, Rice, Water Seeded ([2]; 32 g ai/ha) | Watergrass, Early plant response rating ([4]; 64 g ai/ha) | Watergrass, Early plant response rating ([4]; 125 g ai/ha) | Watergrass, Early plant response rating ([4]; 250 g ai/ha) | Plant response rating, Watergrass, Early ([4]; 16 g ai/ha) | Plant response rating, Watergrass, Early ([4]; 32 g ai/ha) | Sprangletop, Brdd. plant response rating ([5]; 64 g ai/ha) | Sprangletop, Brdd. plant response rating ([5]; 125 g ai/ha) | Sprangletop, Brdd. plant response rating ([5]; 250 g ai/ha) | Plant response rating, Sprangletop, Brdd. ([5]; 16 g ai/ha) | Plant response rating, Sprangletop, Brdd. ([5]; 32 g ai/ha) | Junglerice plant response rating ([6]; 64 g ai/ha) | Junglerice plant response rating ([6]; 125 g ai/ha) | Junglerice plant response rating ([6]; 250 g ai/ha) | Plant response rating, Junglerice ([6]; 16 g ai/ha) | Plant response rating, Junglerice ([6]; 32 g ai/ha) | Plant response rating, Redstem ([8]; 16 g ai/ha) | Barnyardgrass plant response rating ([9]; 32 g ai/ha) | Barnyardgrass plant response rating ([9]; 64 g ai/ha) | Barnyardgrass plant response rating ([9]; 125 g ai/ha) | Barnyardgrass plant response rating ([9]; 250 g ai/ha) | Plant response rating, Barnyardgrass [9] | Rice, Transplanted plant response rating ([10]; 64 g ai/ha) | Rice, Transplanted plant response rating ([10]; 125 g ai/ha) | Rice, Transplanted plant response rating ([10]; 250 g ai/ha) | Plant response rating, Rice, Transplanted ([10]; 16 g ai/ha) | Plant response rating, Rice, Transplanted ([10]; 32 g ai/ha) | Plant response rating, Sedge, Umbrella ([11]; 16 g ai/ha) | Plant response rating, Sedge, Umbrella ([11]; 32 g ai/ha)
75: Redstem plant response rating ([8]; 125 g ai/ha)
95: Flatsedge, Rice plant response rating ([3]; 64 g ai/ha) | Flatsedge, Rice plant response rating ([3]; 125 g ai/ha) | Sedge, Umbrella plant response rating ([11]; 64 g ai/ha)
